Experimental findings from patent US9096591B2, “Tetracyclic compounds” (Medivation Technologies, Inc., priority 2007, dated 2015) are described below.

Like-named read-outs stand apart in the source and are kept apart here.

Assay [1] addresses T1, human recombinant histamine H1 receptor (Homo sapiens, UniProt P35367).
T1 construct: expressed in transfected cells; host or cells: CHO cells
Kind of assay: Histamine H1 radioligand binding ([3H]Pyrilamine). Conditions: for inhibition at 0.03 µM: 0.03 μM compound; for inhibition at 0.1 µM: 0.1 μM compound. As for the experimental part: To evaluate in radioligand binding assays the activity of compounds of the invention, human recombinant histamine H1 receptor expressed in Chinese hamster ovary (CHO) cells (De Backer M D et al. Biochem. Biophys. Res Comm. 197(3):1601, 1993) in a modified Tris-HCl buffer (50 mM Tris-HCl, pH 7.4, 2 mM MgCl2, 100 mM NaCl, 250 mM Sucrose) were used. […] Non-specific binding was estimated in the presence of 1 μM pyrilamine. Receptor proteins were filtered and washed, the filters were then counted to determine [^3H]pyrilamine specifically bound. […] Biochemical assay results are presented as the percent inhibition of specific binding in Table 5.
To evaluate in radioligand binding assays the activity of compounds of the invention, human recombinant histamine H1 receptor expressed in Chinese hamster ovary (CHO) cells (De Backer, M. D. et al., Biochem. Biophys. Res. Comm. 197(3):1601, 1993) in a modified Tris-HCl buffer (50 mM Tris-HCl, pH 7.4, 2 mM MgCl2, 100 mM NaCl, 250 mM Sucrose) was used. […] Non-specific binding was estimated in the presence of 1 μM pyrilamine. Receptor proteins were filtered and washed, the filters were then counted to determine [^3H]Pyrilamine specifically bound. Compounds were screened at 1 μM, using 1% DMSO as vehicle. Biochemical assay results are presented as the percent inhibition of specific binding in Table 6.

The target of assay [2] is T2, human recombinant histamine H2 receptor (Homo sapiens, UniProt P25021).
T2 construct: expressed in transfected cells; host or cells: CHO-K1 cells
T2 sequence (P25021 whole entry): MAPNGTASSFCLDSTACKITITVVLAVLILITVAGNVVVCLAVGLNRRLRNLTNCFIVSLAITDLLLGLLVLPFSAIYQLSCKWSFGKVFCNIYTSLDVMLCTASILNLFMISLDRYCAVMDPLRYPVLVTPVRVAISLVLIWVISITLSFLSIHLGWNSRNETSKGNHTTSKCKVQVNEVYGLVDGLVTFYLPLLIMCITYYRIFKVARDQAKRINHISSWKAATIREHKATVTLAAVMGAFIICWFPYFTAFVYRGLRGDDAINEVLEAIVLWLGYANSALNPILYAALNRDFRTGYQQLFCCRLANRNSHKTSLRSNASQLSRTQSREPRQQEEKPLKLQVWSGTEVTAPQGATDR
In words: Histamine H2 radioligand binding ([125I]Aminopotentidine). The note with it: for inhibition at 0.3 µM: 0.3 μM compound. The method, then: Non-specific binding was estimated in the presence of 3 μM Tiotidine. […] Biochemical assay results are presented as the percent inhibition of specific binding in Table 5.
Non-specific binding was estimated in the presence of 3 μM Tiotidine. […] Compounds were screened at 1 μM, using 1% DMSO as vehicle. Biochemical assay results are presented as the percent inhibition of specific binding in Table 6.

The target of assay [3] is T3, human recombinant dopamine D2L receptor (Homo sapiens, UniProt P14416).
T3 construct: expressed in transfected cells; host or cells: CHO cells
T3 sequence (P14416 whole entry): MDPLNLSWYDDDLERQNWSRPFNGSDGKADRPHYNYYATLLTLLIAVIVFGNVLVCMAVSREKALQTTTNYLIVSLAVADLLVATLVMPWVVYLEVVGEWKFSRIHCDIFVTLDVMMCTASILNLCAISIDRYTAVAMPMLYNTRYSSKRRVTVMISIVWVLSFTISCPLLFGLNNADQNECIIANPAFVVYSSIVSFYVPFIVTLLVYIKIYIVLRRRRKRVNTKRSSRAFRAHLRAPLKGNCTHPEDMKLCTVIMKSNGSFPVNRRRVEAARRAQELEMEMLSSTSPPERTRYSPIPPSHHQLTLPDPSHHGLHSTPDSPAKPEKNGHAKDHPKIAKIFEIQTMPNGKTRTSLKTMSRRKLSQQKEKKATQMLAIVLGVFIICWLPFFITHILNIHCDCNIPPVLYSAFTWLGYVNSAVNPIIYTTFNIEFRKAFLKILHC
Kind of assay: Dopamine D2L radioligand binding ([3H]Spiperone). Conditions: percent inhibition of specific binding. As for the experimental part: Non-specific binding was estimated in the presence of 10 μM Haloperidol. Receptor proteins were filtered and washed, the filters were then counted to determine [^3H]Spiperone specifically bound. […] Biochemical assay results are presented as the percent inhibition of specific binding in Table 6.

Another assay deals with mice. In words: recognition test of new location of a known object (spatial memory). The format is in vivo.
Assay [4] has as its system synaptosomes of cortex of rat brain. In words: Glutamate-induced 45Ca2+ uptake into synaptosomes. The format is biochemical, Wistar rats. The note with it: for % Ca of control (control-100%), glutamate-induced 45Ca2+ uptake into synaptosomes: rat cortex synaptosomes. The method, then:
Synaptosomes were obtained from cerebral cortex of newborn (9-10 days) Wistar rats using standard Hajos method. The brain was homogenized with 10 volumes of cooled 0.32 M sucrose at 900 rpm. The homogenate was centrifuged at 1500 g for 10 min. and the resulted supernatant was centrifuged at 10000 g for 20 min. The radioactive label was accumulated by suspension of the synaptosomal P2-fraction in the incubation buffer A having the following composition: 132 mM NaCl, 5 mM KCl, 5 mM HEPES, 10 mM glucose, pH 7.4 (protein concentration of approximately 1.5-2 mg/ml). The mixture was further incubated for 5 min with 200 μM glutamate at 37° C. and then ^45Ca^2+ uptake was stopped by filtration through GF/B filters (Whatman, England) followed by three washes with cold buffer B (145 mM KCl, 10 mM Tris, 5.4 mM Trilon B, pH 7.4). The radioactivity probes were analyzed by fluid scintillation beta-analyzer (TriCarb, Perkin Elmer). All tests were performed in three parallel trials in 2-3 independent experiments. The amount of ^45Ca^2+ uptake was estimated by calculating the difference of radioactive label during the stimulation with glutamate and without the stimulation with agonist.
Specific ^45Ca^2+ uptake was estimated using the following equation: K(43/21)=[(Ca4−Ca3)/(Ca2−Ca1)]100%, where
Ca1—^45Ca^2+ uptake for the Control (without glutamate and the compound tested),
[…] glutamate-induced ^45Ca^2+ uptake (glutamate only),
Ca3—^45Ca^2+ uptake in the presence of the compound tested (without glutamate),
Ca4—^45Ca^2+ uptake in the presence of glutamate and the testing compound.
Statistical analysis of the results was performed using Student's t-test.

The mark [5] stands for this setting: percent inhibition of specific binding, screened at 1 μM, read-out: Inhibition of ligand binding, Hist. H1.
Where [6] appears, read: percent inhibition of specific binding, screened at 1 μM, read-out: Inhibition of ligand binding, Hist. H2.
Setting [7] is: […] [3H]Pyrilamine, read-out: Histamine Binding H1, percent inhibition of specific binding.
Where [8] appears, read: 1 μM compound, […] [3H]Pyrilamine, read-out: Histamine Binding H1, percent inhibition of specific binding.
[9] abbreviates: 0.1 nM [125I]Aminopotentidine, read-out: Histamine Binding H2, percent inhibition of specific binding.
The mark [10] stands for this setting: 1 μM compound, 0.1 nM [125I]Aminopotentidine, read-out: Histamine Binding H2, percent inhibition of specific binding.
Where [11] appears, read: 1 μM compound, […] [3H]Pyrilamine.

T1 sequence (P35367 whole entry): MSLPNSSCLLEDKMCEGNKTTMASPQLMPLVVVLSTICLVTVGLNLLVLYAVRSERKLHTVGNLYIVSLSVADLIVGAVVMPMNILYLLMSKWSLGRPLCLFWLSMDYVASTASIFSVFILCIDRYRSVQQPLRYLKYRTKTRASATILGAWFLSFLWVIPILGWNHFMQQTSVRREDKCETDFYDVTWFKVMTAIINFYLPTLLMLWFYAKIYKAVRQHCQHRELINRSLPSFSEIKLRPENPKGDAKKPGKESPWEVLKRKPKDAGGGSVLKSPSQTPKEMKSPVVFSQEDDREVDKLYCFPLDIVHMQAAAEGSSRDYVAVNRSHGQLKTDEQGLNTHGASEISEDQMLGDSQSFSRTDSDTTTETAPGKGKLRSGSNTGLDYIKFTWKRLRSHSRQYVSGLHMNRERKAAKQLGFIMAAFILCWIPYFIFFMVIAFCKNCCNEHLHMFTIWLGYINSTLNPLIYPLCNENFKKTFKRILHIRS

A word on the inhibition: it is the relative decrease from the control value, in per cent. Regarding `Cc1ccc(C(O)Cn2c3c(c4ccccc42)CN(C)CC3)cc1` (stereo not drawn) [Compound 7], the inhibition at 1 µM is 47% in assay [1] (setting [5]) and 58% in assay [2] (setting [6]).

With `CCN1CCc2c(c3cc(C)ccc3n2CCc2ccc(C)cc2)C1` [Compound 26], the inhibition at 0.03 µM in assay [1] (setting [7]) is 67%. Further, in assay [1] (setting [7]), the inhibition at 0.1 µM came to 81%. Moreover, the inhibition at 1 µM in assay [1] (setting [8]) was 96%; in assay [1] (setting [5]), 96%; in assay [2] (setting [10]), 73%; in assay [2] (setting [6]) it was 73%. Also, the inhibition at 0.3 µM in assay [2] (setting [9]) is 34%.

Take `Cc1ccc2c(c1)c1c(n2CCc2ccccc2)CCN(C2CC2)C1` [Compound 35, 2-cyclopropyl-2,3,4,5-tetrahydro-8-methyl-5-phenethyl-1H-pyrido[4,3-b]indole]: the inhibition at 1 µM in assay [1] (setting [8]) was 99%; in assay [2] (setting [10]), 54%.

`CCN1CCc2c(c3cc(C)ccc3n2CCc2ccccc2)C1` [Compound 37]: in assay [1] (setting [7]), the inhibition at 0.03 µM was 59%. Further, the inhibition at 0.1 µM in assay [1] (setting [7]) was 78%. Further, the inhibition at 1 µM came to 101% in assay [1] (setting [8]), 101% in assay [1] (setting [5]), 53% in assay [2] (setting [10]) and 53% in assay [2] (setting [6]). The inhibition at 0.3 µM in assay [2] (setting [9]) came to 22%.

For `CN1CCc2c(c3cc(Cl)ccc3n2C[C@@](C)(O)c2ccc(F)cc2)C1` [Compound 110], in assay [3], the “Inhibition of ligand binding, Dop. D2L” value came to 35%.

On to `CCOC(=O)N1CCc2c(c3cc(C)ccc3n2CCc2cccnc2)C1` [Compound 217], for which the values for the inhibition at 1 µM in assay [1] (setting [8]) and in assay [2] (setting [10]) were -4% and 13%, respectively.

For `CN1CCc2c(c3cc(Cl)ccc3n2CCc2n[nH]c(=S)n2C)C1(C)C` [Compound 218], the “Histamine Binding H1, percent inhibition of specific binding” value in assay [1] (setting [11]) is recorded as 80%. Further, the inhibition at 1 µM in assay [2] (setting [10]) turned out to be 34%.

As for `CN1Cc2c(n(CCc3n[nH]c(=S)n3C)c3ccc(C(F)(F)F)cc23)CC1(C)C` [Compound 219], the inhibition at 1 µM in assay [1] (setting [8]) turned out to be 89%; in assay [2] (setting [10]) it was 71%.

In the case of `CN1CCc2c(c3cc(Cl)ccc3n2CCc2n[nH]c(=S)n2C)C1(C)C` [Compound 220], the “Histamine Binding H1, percent inhibition of specific binding” value in assay [1] (setting [11]) was found to be 3%. The “Histamine Binding H2, percent inhibition of specific binding” value in assay [2] (1 μM compound, 0.1 nM [125I]Aminopotentidine) was found to be 22%.

As to `FC(F)(F)c1ccc2c(c1)c1c(n2CCc2noc(-c3ccccc3)n2)CCN(C2CC2)C1` [Compound 222], in assay [1] (10 nM (0.01 μM) compound, […] [3H]Pyrilamine, read-out: Histamine Binding H1, percent inhibition of specific binding), the inhibition at 0.01 µM turned out to be 85%. Also, the inhibition at 0.1 µM was found to be 101% in assay [1] (setting [7]) and 89% in assay [2] (0.1 μM compound, 0.1 nM [125I]Aminopotentidine, read-out: Histamine Binding H2, percent inhibition of specific binding). Moreover, the inhibition at 1 µM in assay [1] (setting [8]) stood at 103%; in assay [2] (setting [10]) it was 98%.

Regarding `CN1Cc2c(n(CCc3noc(-c4ccccc4)n3)c3ccc(Cl)cc23)CC12CC2` [Compound 223], the inhibition at 1 µM in assay [1] (setting [8]) turned out to be 100%; in assay [2] (setting [10]), 94%.

Consider `Cc1ccc2c(c1)c1c(n2CCC(=O)N2CCC(NC(=O)OC(C)(C)C)CC2)CCN(C)C1` [Compound 226, tert-butyl 1-(3-(1,2,3,4-tetrahydro-2,8-dimethylpyrido[4,3-b]indol-5-yl)propanoyl)piperidin-4-ylcarbamate], for which the inhibition at 1 µM in assay [1] (setting [8]) was found to be 87%; in assay [2] (setting [10]), 96%.

On to `Cc1ccc2c(c1)c1c(n2CCc2ccc(C(=O)O)nc2)CCN(C)C1=O` [Compound 241], for which the inhibition at 1 µM is 19% in assay [1] (read-out: Histamine Binding H1, percent inhibition of specific binding) and 11% in assay [2] (read-out: Histamine Binding H2, percent inhibition of specific binding).

Take `CN1Cc2c(n(CCc3noc(-c4ccc(Cl)cc4)n3)c3ccc(Cl)cc23)CC12CC2` [Compound 242]: the inhibition at 1 µM was 94% in assay [1] (setting [8]) and 87% in assay [2] (setting [10]).

For the compound `CN1CCc2c(c3ccccc3n2CCc2nc(-c3ccccc3)cs2)C1` [Compound C1-1], the “Influence on memory in the test recognition new localization of known object” value with mice (Dose of Compound 0.05 mg/kg) is reported as “+”; with mice (Dose of Compound 0.1 mg/kg) it was “+”; in the assay on mice (Dose of Compound 0.5 mg/kg), “−”; with mice (Dose of Compound 1.0 mg/kg), “+”. Moreover, the “activity on memory compared with dimebon (in words)” value in the assay with mice (comparison of effective doses) is given as “approximately two times higher”. The “time exploring the object in a new location, % of the total time” value with mice (mice, dose 0.05 mg/kg) is 61.8±8.4%; in the assay with mice (mice, dose 0.1 mg/kg), 56.0±6.9%; in the assay with mice (mice, dose 1 mg/kg) it was 61.5±8.9%. Besides, the “time exploring the object in the known position, % of the total time” value with mice (mice, dose 0.05 mg/kg) amounted to 38.2±8.4%; with mice (mice, dose 0.1 mg/kg) it was 42.7±6.9%; in the assay with mice (mice, dose 1 mg/kg), 37.8±8.9%. Also, the “effect of the dose on exploration time / memory (in words)” value with mice (mice, dose 0.5 mg/kg) is “disappearance of the stimulating effect on memory”. Moreover, the “overall effect on memory (in words)” value in the assay on mice (mice, doses 0.05-1 mg/kg) was “stimulating effect on memory”. The “concentration at which glutamate-induced 45Ca2+ uptake into synaptosomes was increased” value in assay [4] was in the range of 50 to 100 µM. Also, the “inhibition of glutamate-induced 45Ca2+ uptake into synaptosomes” value in assay [4] (0.1-0.5 μM) is listed as approximately 13%. For the same compound, the “glutamate-induced 45Ca2+ uptake into synaptosomes of rat cortex, % Ca of control (control-100%)” value in assay [4] (C 50 μM) is on record as 126.9%. The “% Ca of control (control-100%), glutamate-induced 45Ca2+ uptake into synaptosomes” value in assay [4] (compound 0.1 μM) is given as 85.5 ± 5.8%; in assay [4] (compound 0.5 μM) it was 86.9 ± 4.2%; in assay [4] (compound 1 μM), 100.3 ± 6.5%; in assay [4] (compound 5 μM), 98.8 ± 3.2%; in assay [4] (compound 10 μM), 91 ± 11.9%; in assay [4] (compound 50 μM), 126.9 ± 4.5%. The “% Ca of control (control-100%), glutamate-induced 45Ca2+ uptake into synaptosomes” value in assay [4] (compound 100 μM) worked out at 111.9 ± 11.31%.
